According to ChEMBL document CHEMBL4364276, “Discovery of 4-phenyl-2H-benzo[b][1,4]oxazin-3(4H)-one derivatives as potent and orally active PI3K/mTOR dual inhibitors” (Eur J Med Chem, 2019):

What was measured:
[1] = target: Serine/threonine-protein kinase MRCK gamma (Homo sapiens) (UniProt Q6DT37); assay: Inhibition of human DMPK2 at 100 nM using KKRPQRRYSNVF as substrate by [gamma-33P]-ATP assay
[2] = target: Protein kinase C beta type (Homo sapiens) (UniProt P05771); assay: Inhibition of human PKCb1 at 100 nM using Histone H1 as substrate by [gamma-33P]-ATP assay
[3] = target: Serine/threonine-protein kinase/endoribonuclease IRE2 (Homo sapiens) (UniProt Q76MJ5); assay: Inhibition of human ERN2 at 100 nM using MBP as substrate by [gamma-33P]-ATP assay
[4] = target: Mitogen-activated protein kinase kinase kinase kinase 4 (Homo sapiens) (UniProt O95819); assay: Inhibition of human HGK at 100 nM using MBP as substrate by [gamma-33P]-ATP assay
[5] = target: Serine/threonine-protein kinase mTOR (Homo sapiens, UniProt P42345); assay: Inhibition of human mTOR at 100 nM using 4EBP1 as substrate by [gamma-33P]-ATP assay
[6] = target: Serine/threonine-protein kinase Nek4 (Homo sapiens) (UniProt P51957); assay: Inhibition of human NEK4 at 100 nM using MBP as substrate by [gamma-33P]-ATP assay
[7] = target: Platelet-derived growth factor receptor alpha (Homo sapiens) (UniProt P16234); assay: Inhibition of human PDGFRalpha at 100 nM using poly[Glu:Tyr] (4:1) as substrate by [gamma-33P]-ATP assay
[8] = target: Ephrin type-A receptor 5 (Homo sapiens) (UniProt P54756); assay: Inhibition of human EPHA5 at 100 nM using poly[Glu:Tyr] (4:1) as substrate by [gamma-33P]-ATP assay
[9] = target: Dual specificity testis-specific protein kinase 2 (Homo sapiens) (UniProt Q96S53); assay: Inhibition of human TESK2 at 100 nM using cofilin as substrate by [gamma-33P]-ATP assay
[10] = target: NUAK family SNF1-like kinase 1 (Homo sapiens) (UniProt O60285); assay: Inhibition of human ARK5 at 100 nM using KKKVSRSGLYRSPSMPENLNRPR as substrate by [gamma-33P]-ATP assay
[11] = target: Inhibitor of nuclear factor kappa-B kinase subunit beta (Homo sapiens) (UniProt O14920); assay: Inhibition of human IKKbeta at 100 nM using KKKKERLLDDRHDSGLDSMKDEE as substrate by [gamma-33P]-ATP assay
[12] = target: Epithelial discoidin domain-containing receptor 1 (Homo sapiens) (UniProt Q08345); assay: Inhibition of human DDR1 at 100 nM using KKSRGDYMTMQIG as substrate by [gamma-33P]-ATP assay
Chain of Epithelial discoidin domain-containing receptor 1 (Homo sapiens) (Q08345 whole entry, the tested form may be a part): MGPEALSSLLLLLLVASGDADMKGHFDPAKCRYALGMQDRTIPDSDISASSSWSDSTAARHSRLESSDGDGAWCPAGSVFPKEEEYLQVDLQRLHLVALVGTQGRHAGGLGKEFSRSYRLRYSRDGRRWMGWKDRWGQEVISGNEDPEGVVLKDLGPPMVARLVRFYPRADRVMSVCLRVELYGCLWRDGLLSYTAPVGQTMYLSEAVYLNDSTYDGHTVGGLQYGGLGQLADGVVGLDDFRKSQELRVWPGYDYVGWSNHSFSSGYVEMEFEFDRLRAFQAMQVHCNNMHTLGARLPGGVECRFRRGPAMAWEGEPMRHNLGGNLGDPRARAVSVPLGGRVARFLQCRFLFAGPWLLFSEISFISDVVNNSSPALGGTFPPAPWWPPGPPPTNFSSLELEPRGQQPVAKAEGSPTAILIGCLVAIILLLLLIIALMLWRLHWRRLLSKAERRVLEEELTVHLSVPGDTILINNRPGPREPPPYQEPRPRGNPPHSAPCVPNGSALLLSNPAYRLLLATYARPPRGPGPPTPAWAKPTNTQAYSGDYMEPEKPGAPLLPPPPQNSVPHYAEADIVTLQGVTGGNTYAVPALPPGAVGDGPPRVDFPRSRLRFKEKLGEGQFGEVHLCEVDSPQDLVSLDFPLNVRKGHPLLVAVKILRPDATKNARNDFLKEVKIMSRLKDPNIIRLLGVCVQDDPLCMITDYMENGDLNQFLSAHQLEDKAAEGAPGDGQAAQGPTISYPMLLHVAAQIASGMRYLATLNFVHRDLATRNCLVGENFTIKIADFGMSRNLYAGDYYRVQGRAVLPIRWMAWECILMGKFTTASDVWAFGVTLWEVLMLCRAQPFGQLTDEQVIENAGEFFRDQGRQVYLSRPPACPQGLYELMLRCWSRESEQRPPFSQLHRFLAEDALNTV

[13] = target: Tau-tubulin kinase 1 (Homo sapiens) (UniProt Q5TCY1); assay: Inhibition of human TTBK1 at 100 nM using MBP as substrate by [gamma-33P]-ATP assay
[14] = target: Cyclin-C/Cyclin-dependent kinase 19 (Homo sapiens) (UniProt Q9BWU1+P24863); assay: Inhibition of human CDK19/cyclin-C at 100 nM using RB protein as substrate by [gamma-33P]-ATP assay; assay type: protein-complex assay
[15] = target: [Pyruvate dehydrogenase (acetyl-transferring)] kinase isozyme 4, mitochondrial (Homo sapiens) (UniProt Q16654); assay: Inhibition of human PDK4 at 100 nM using MBP as substrate by [gamma-33P]-ATP assay
[16] = target: Tyrosine-protein kinase ITK/TSK (Homo sapiens) (UniProt Q08881); assay: Inhibition of human ITK at 100 nM using MBP as substrate by [gamma-33P]-ATP assay
[17] = target: Megakaryocyte-associated tyrosine-protein kinase (Homo sapiens) (UniProt P42679); assay: Inhibition of human CTK at 100 nM using poly[Glu:Tyr] (4:1) as substrate by [gamma-33P]-ATP assay
[18] = target: Protein kinase C theta type (Homo sapiens) (UniProt Q04759); assay: Inhibition of human PKCtheta at 100 nM using Histone H1 as substrate by [gamma-33P]-ATP assay
Chain of Protein kinase C theta type (Homo sapiens) (Q04759 whole entry, looked up): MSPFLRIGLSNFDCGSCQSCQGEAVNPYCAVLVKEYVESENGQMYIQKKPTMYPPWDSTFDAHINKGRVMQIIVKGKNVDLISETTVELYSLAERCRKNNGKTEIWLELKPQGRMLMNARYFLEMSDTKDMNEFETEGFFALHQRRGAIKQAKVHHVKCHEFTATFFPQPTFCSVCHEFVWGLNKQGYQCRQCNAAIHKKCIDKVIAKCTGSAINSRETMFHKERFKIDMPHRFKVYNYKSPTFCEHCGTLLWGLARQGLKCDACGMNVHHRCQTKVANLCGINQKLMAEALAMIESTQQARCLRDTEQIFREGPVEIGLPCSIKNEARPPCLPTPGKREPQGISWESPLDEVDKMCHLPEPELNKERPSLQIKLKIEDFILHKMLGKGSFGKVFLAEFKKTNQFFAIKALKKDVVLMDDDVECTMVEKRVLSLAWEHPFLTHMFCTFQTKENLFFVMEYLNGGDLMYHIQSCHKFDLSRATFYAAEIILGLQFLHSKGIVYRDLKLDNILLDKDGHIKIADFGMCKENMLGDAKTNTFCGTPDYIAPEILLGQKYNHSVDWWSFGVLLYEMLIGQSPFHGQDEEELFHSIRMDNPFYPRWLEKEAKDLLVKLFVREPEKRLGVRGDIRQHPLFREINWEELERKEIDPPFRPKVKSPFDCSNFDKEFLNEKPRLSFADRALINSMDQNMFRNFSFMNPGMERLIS

[19] = target: Myosin light chain kinase, smooth muscle (Homo sapiens) (UniProt Q15746); assay: Inhibition of human MLCK at 100 nM using KKLNRTLSFAEPG as substrate by [gamma-33P]-ATP assay
Chain of Myosin light chain kinase, smooth muscle (Homo sapiens) (Q15746 whole entry): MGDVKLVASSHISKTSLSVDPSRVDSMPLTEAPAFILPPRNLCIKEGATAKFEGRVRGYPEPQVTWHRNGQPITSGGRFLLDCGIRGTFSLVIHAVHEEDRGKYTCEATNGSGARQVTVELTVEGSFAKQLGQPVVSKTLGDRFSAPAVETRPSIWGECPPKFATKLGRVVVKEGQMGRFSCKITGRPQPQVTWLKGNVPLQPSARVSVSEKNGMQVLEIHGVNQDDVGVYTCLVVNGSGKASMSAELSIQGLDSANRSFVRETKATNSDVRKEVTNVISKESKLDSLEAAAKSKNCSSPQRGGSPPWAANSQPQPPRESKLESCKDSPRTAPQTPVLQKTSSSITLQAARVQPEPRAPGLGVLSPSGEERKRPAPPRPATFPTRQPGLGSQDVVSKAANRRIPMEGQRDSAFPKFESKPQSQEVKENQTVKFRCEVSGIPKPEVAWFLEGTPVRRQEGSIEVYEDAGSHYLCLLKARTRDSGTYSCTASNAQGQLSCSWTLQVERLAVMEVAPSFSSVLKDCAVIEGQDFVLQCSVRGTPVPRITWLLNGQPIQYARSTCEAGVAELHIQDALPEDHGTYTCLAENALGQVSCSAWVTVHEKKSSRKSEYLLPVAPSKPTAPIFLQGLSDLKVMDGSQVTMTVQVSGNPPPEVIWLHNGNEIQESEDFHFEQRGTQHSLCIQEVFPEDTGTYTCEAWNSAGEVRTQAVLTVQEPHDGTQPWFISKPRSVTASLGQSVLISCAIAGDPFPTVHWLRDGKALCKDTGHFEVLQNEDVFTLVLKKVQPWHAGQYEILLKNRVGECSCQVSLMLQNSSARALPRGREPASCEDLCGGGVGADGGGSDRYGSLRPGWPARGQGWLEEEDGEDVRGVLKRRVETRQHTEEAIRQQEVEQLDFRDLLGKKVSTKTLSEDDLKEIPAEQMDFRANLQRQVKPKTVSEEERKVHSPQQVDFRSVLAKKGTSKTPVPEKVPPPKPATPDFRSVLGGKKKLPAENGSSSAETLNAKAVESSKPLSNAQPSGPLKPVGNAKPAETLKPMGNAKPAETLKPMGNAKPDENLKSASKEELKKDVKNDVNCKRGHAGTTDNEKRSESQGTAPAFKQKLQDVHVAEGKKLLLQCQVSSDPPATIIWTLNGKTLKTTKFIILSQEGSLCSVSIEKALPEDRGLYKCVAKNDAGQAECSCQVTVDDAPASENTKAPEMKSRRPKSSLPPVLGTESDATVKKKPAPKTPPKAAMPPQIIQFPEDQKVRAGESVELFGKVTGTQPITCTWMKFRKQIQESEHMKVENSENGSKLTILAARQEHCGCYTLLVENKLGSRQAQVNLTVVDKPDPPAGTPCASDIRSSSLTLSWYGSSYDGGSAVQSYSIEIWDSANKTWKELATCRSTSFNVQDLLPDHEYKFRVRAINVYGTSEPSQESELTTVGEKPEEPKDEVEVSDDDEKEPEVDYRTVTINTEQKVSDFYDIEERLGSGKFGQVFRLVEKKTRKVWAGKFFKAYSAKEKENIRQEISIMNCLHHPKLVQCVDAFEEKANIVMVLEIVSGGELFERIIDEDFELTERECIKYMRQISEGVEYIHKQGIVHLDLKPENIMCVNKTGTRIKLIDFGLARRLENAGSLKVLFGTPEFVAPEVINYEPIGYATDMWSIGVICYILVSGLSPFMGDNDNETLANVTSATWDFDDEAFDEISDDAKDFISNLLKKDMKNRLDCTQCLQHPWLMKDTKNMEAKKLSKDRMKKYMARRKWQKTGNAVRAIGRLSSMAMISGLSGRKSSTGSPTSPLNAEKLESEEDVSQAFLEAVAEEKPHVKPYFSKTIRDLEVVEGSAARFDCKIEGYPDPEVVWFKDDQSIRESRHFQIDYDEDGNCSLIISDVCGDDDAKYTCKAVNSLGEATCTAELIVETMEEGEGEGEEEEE

[20] = target: Tyrosine-protein kinase JAK3 (Homo sapiens) (UniProt P52333); assay: Inhibition of human JAK3 at 100 nM using poly[Glu:Tyr] (4:1) as substrate by [gamma-33P]-ATP assay
[21] = target: Vascular endothelial growth factor receptor 3 (Homo sapiens) (UniProt P35916); assay: Inhibition of human FLT4 at 100 nM using poly[Glu:Tyr] (4:1) as substrate by [gamma-33P]-ATP assay
PI3K p110 beta/p85 alpha = PI3K p110 beta/p85 alpha (Homo sapiens, UniProt P42338); assay: Inhibition of recombinant human full length N-terminal GST-tagged PI3Kbeta (1 to 1070 residues)/PIK3R1 (1 to 724 residues) expressed in baculovirus expression system using PIP2 as substrate incubated for 2 hrs by ADP-Glo assay
[22] = target: CDK8/Cyclin C (Homo sapiens) (UniProt P49336+P24863); assay: Inhibition of human CDK8/cyclin-C at 100 nM using KKKVSRSGLYRSPSMPENLNRPR as substrate by [gamma-33P]-ATP assay; assay type: protein-complex assay
[23] = target: Receptor-interacting serine/threonine-protein kinase 4 (Homo sapiens) (UniProt P57078); assay: Inhibition of human RIPK4 at 100 nM using histone H2A as substrate by [gamma-33P]-ATP assay
Chain of Receptor-interacting serine/threonine-protein kinase 4 (Homo sapiens) (P57078 whole entry): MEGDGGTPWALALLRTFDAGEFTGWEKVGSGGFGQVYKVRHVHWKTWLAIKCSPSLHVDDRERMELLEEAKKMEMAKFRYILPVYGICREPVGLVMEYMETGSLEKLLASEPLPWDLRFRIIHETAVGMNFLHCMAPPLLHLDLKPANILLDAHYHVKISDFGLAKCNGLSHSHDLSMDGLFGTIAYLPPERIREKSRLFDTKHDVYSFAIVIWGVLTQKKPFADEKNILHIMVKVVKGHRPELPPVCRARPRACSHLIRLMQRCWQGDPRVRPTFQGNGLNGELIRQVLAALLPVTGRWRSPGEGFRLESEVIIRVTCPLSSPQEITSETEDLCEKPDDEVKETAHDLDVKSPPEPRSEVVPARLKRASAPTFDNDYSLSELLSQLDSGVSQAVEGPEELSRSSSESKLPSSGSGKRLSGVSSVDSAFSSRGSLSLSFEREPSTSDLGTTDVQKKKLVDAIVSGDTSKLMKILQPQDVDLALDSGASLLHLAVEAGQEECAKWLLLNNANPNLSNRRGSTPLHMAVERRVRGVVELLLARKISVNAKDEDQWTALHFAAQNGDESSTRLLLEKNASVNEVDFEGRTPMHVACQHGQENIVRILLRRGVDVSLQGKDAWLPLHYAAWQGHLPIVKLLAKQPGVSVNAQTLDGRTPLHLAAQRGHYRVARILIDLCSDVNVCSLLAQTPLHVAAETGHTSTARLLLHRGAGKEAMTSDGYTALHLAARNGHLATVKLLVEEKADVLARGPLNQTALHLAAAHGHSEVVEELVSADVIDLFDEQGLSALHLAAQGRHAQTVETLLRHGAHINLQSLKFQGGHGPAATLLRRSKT

[24] = target: Casein kinase II subunit alpha (Homo sapiens) (UniProt P68400); assay: Inhibition of human CK2A at 100 nM using RRRDDDSDDD as substrate by [gamma-33P]-ATP assay
[25] = target: Dual specificity mitogen-activated protein kinase kinase 2 (Homo sapiens) (UniProt P36507); assay: Inhibition of human MEK2 at 100 nM using ERK2 as substrate by [gamma-33P]-ATP assay
[26] = target: Protein kinase C iota type (Homo sapiens) (UniProt P41743); assay: Inhibition of human PKCiota at 100 nM using ERMRPRKRQGSVRRRV as substrate by [gamma-33P]-ATP assay
Chain of Protein kinase C iota type (Homo sapiens) (P41743 whole entry): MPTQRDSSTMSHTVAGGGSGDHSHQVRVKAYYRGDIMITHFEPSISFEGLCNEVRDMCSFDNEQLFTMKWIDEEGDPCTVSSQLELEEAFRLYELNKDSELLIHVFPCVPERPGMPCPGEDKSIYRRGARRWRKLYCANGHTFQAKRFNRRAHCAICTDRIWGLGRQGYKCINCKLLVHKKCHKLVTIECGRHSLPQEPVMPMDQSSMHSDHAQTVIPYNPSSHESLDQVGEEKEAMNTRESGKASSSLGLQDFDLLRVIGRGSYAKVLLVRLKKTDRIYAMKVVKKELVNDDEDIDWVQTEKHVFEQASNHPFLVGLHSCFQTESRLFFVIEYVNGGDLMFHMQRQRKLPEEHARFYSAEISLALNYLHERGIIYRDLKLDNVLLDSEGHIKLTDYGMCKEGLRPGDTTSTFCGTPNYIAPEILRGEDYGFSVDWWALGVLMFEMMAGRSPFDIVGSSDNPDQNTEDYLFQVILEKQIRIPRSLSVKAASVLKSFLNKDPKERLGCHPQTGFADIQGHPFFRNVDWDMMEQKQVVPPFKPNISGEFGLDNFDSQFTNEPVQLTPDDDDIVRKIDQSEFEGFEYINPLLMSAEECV

## COc1ccc(N2C(=O)COc3ccc(-c4cnc(OC)c(NS(=O)(=O)c5ccc(F)cc5)c4)cc32)cc1
[1]
  inhibition: -9.5%
[2]
  inhibition: 7.83%
[3]
  inhibition: -2.98%
[4]
  inhibition: 19.4%
[5]
  inhibition: 67.5%
[6]
  inhibition: -6.56%
[7]
  inhibition: -1.93%
[8]
  inhibition: 3.06%
[9]
  inhibition: 0.47%
[10]
  inhibition: 0.26%
[11]
  inhibition: 14.5%
[12]
  inhibition: 2.59%
[13]
  inhibition: -1.55%
[14]
  inhibition: 4.5%
[15]
  inhibition: -4.54%
[16]
  inhibition: -1.21%
[17]
  inhibition: -7.54%
[18]
  inhibition: 0.73%
[19]
  inhibition: 7.23%
[20]
  inhibition: -4.79%
[21]
  inhibition: -7.65%
PI3K p110 beta/p85 alpha
  IC50: 94.5 nM
[22]
  inhibition: 2.74%
[23]
  inhibition: 1.41%
[24]
  inhibition: 12.7%
[25]
  inhibition: 1.12%
[26]
  inhibition: -2.31%
